Measured values published in article PMC12521527, “In vivo self-assembled nano-PROTAC for the dual degradation of AR and HSP90 to overcome castration-resistant prostate cancer resistance” (Signal Transduction and Targeted Therapy, 2025).
Numbered stars: 1 amine (or outer) side, 2 acyl side, 3 side chain; on linkers, the order of the positions; unused ones are H or OH. Square brackets hold non-standard residues; d marks the D form. Peptide text beside a SMILES is read from it. * marks the point of attachment. X2 = CC1(C)C(=O)N(c2ccc(C#N)c(C(F)(F)F)c2)C(=S)N1c1ccc(C(=O)*)c(F)c1; X1 = O=C1CCC(N2C(=O)c3cccc(N(CC(=O)[*:2])[*:1])c3C2=O)C(=O)N1; EuK = O=C(O)CC[C@H](NC(=O)N[C@@H](CCCCN*)C(=O)O)C(=O)O; 2Nal = N[C@@H](Cc1ccc2ccccc2c1)C(=O)O

Assays:
22Rv1 xenograft tumor = experiment: Antitumor efficacy in 22Rv1 xenograft mice; assay type: in vivo, BALB/c nude mice; conditions: dose study, intravenous every 48 h, five cycles, 20 days
22Rv1 cells = assay type: cell-based; conditions: n = 6, read-out: IC50, cell viability
[1] = tested on: RWPE-1 (PSMA^low) and 22Rv1 (PSMA^high) cells; experiment: Uptake in RWPE-1 versus 22Rv1 cells (flow cytometry, IF); assay type: cell-based
Experimental: Fig. 2 a Representative 22Rv1 cell CLSM images of FITC-labeled Psa-AR (40 μM) assembly (green channel) interacting with PSMA (red channel) and its colocalization analysis (1–1’). Scale bar: 10 μm. b Representative SEM images of 22Rv1 cells after treatment with Psa-AR (40 μM) for 4 h. Scale bar: 1 μm. Scale bar: 200 nm (zoom in). c Representative 22Rv1 cell CLSM images of FITC-labeled P-AR (40 μM) (green channel) interacting with PSMA (red channel). Scale bar: 10 μm. d Representative SEM images of 22Rv1 cells after treatment with P-AR (40 μM) for 4 h. Scale bar: 1 μm. Scale bar: 200 nm (zoom in). e The uptake of either Psa-AR or P-AR by 22Rv1 (PSMA^high) and RWPE-1 (PSMA^low) cells was examined by flow cytometry, followed by comprehensive quantitative analysis (f), n = 3 per group. g Representative 22Rv1 cell CLSM images of FITC-labeled Psa-AR assembly (green channel) with lysosomes (red channel) and colocalization analysis. Scale bar: 10 μm. h Representative CLSM images of 22Rv1 cells after incubation with FITC-labeled Psa-AR (green channel) for 12 h. […]
A total of 1 × 10^5 22Rv1 cells per well were seeded in 6-well plates in DMEM containing 10% fetal bovine serum and 1% penicillin‒streptomycin. […] Then, the cells were collected to evaluate fluorescence expression via flow cytometry. […] The cells were then collected and analyzed for fluorescence expression via flow cytometry.

AR = biological target: T1, AR (Homo sapiens, UniProt P10275, T878A); experiment: Western blot AR degradation in LNCaP cells; assay type: cell-based
T1 construct: endogenous in cells; host or cells: LNCaP
Experimental: All uncropped blots are presented in Supplementary Fig. 26. j, k Representative 22Rv1 cell CLSM images of the degradation of AR after incubation with FITC-labeled Psa-AR for 12 h and quantitative analysis, n = 3 per group. Scale bar: 10 μm. l, m Representative 22Rv1 cell CLSM images of the degradation of HSP90 after incubation with FITC-labeled Psa-AR for 12 h and quantitative analysis, n = 3 per group. Scale bar: 10 μm. n AR-V7 expression in 22Rv1 cells after treatment with PBS, P-AR (20 μM), Psa-AR (20 μM) or Psa-AR (20 μM) combined with MG132 (2 μM) for 48 h, as determined by western blotting. β-Actin was used as an internal reference. o Results of apoptosis in 22Rv1 cells treated with PBS, P-AR (20 μM), or Psa-AR (20 μM) for 48 h, as detected by flow cytometry.
The pretreated cells were resuspended in lysis buffer containing 50 mM Tris-HCl (pH 8.0), 150 mM NaCl, 1% (v/v) Triton X-100, and protease inhibitors. The protein concentration was determined via a BCA kit (Applygen). Each sample ([…]) was subjected to SDS‒PAGE and then transferred to a PVDF membrane. The blots were blocked in 5% (wt/v) blocking buffer. After washing three times with TBST buffer (10 mM TBS solution containing 0.1% (v/v) Tween-20), the blots were incubated with primary antibodies at 4 °C on a shaker for 16 h. After washing with TBST buffer three times, the blot was incubated with secondary antibodies at room temperature on a shaker for 2 h. After being washed three times with TBST buffer, the blots were subsequently scanned on a Typhoon Trio Variable Mode Imager.

T1 sequence (P10275 whole entry T878A): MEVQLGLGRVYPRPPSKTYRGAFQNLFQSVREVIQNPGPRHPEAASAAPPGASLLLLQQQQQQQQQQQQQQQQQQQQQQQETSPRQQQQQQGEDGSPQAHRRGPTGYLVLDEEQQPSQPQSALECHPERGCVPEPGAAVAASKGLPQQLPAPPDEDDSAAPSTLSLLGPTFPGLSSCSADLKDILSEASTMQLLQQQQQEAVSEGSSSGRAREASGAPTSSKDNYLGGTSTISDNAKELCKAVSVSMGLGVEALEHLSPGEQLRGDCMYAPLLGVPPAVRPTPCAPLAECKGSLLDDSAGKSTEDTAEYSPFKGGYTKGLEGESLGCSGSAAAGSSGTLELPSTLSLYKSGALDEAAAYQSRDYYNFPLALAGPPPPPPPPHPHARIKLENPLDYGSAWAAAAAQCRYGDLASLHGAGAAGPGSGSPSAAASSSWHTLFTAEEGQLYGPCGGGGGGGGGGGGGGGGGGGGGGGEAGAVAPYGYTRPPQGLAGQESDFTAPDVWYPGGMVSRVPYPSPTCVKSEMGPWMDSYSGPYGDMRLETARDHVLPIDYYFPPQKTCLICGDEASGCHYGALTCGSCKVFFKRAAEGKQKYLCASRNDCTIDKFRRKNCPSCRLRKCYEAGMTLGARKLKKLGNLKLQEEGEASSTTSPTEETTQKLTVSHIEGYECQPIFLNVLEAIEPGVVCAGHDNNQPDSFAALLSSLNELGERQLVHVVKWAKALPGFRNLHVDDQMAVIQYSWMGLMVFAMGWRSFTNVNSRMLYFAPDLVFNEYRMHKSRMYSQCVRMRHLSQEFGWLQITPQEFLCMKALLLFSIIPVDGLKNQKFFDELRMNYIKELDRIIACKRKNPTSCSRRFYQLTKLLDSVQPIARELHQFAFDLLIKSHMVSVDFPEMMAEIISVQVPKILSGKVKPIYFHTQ
T1 sequence (Q16531 whole entry, further chain): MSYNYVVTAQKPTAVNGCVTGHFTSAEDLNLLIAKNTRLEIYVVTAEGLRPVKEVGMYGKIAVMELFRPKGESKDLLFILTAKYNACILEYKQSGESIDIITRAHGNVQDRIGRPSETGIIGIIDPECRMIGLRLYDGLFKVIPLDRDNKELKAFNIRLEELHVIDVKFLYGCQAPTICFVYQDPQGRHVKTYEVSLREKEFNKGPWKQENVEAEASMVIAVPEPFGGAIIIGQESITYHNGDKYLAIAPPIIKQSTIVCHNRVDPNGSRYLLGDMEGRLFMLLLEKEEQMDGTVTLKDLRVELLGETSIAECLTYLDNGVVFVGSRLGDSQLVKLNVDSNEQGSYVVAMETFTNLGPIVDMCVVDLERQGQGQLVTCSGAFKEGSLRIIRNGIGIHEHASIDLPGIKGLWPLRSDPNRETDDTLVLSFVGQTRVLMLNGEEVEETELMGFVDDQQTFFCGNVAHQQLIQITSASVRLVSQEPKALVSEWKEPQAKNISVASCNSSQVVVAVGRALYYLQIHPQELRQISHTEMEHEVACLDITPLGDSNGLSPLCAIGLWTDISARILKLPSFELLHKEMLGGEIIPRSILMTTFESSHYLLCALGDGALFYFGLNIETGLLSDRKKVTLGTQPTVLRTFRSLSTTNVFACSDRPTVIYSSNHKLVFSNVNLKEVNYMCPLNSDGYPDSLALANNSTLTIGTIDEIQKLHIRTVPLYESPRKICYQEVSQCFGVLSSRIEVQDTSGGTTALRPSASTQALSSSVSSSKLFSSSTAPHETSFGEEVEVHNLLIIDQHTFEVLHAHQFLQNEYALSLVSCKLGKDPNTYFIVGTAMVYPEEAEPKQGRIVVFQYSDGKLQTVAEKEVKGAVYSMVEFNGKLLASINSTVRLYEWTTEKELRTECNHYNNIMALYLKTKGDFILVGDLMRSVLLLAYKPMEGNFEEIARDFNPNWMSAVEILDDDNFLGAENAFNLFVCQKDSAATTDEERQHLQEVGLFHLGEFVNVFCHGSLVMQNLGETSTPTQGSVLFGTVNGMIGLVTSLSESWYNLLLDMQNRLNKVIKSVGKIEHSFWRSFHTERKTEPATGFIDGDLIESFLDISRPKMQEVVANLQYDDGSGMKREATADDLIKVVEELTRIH
T1 sequence (Q96SW2 whole entry, further chain): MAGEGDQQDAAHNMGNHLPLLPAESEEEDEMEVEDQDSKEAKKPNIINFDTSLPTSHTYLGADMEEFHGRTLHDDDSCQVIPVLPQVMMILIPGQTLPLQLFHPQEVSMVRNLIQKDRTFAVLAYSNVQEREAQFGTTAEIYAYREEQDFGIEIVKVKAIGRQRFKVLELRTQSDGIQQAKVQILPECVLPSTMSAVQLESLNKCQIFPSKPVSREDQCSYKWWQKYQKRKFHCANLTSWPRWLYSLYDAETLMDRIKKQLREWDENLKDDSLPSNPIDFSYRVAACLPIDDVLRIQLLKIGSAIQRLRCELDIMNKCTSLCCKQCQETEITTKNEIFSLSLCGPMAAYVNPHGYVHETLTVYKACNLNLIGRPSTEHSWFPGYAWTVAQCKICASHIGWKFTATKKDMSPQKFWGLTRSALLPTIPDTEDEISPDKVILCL

SMILES: CC1(C)C(=O)N(c2ccc(C#N)c(C(F)(F)F)c2)C(=S)N1c1ccc(C(=O)NCCCC[C@H](NC(=O)CNc2cccc3c2C(=O)N(C2CCC(=O)NC2=O)C3=O)C(=O)N[C@@H](CS)C(=O)N[C@@H](CCC(N)=O)C(=O)N[C@@H](Cc2ccc(O)cc2)C(=O)N[C@@H](CC(N)=O)C(=O)N[C@@H](CCC(N)=O)C(=O)N[C@@H](Cc2ccc(O)cc2)C(=O)N[C@@H](Cc2ccc(O)cc2)C(=O)N[C@@H](Cc2ccc3ccccc3c2)C(=O)NCCCC[C@H](NC(=O)N[C@@H](CCC(=O)O)C(=O)O)C(=O)O)c(F)c1 (some centres unmarked) [Psa-AR] (H-[X1]K(X2)CQYNQYY[2Nal]-EuK)
- mean tumor volume at 10 mg/kg (22Rv1 xenograft tumor): 220 mm^3
- FTIR amide I peak with PSMA: 1630 cm⁻¹
- IC50 (22Rv1 cells): 10.9 ± 1.1 µM
- selectivity ratio between PSMA^low RWPE-1 and PSMA^high 22Rv1 cells, relative to P-AR ([1]; FITC-labeled, 40 µM, 24 h, flow cytometry, n = 3): 13 fold
- cellular uptake in RWPE-1 cells ([1]; IF, RWPE-1 (PSMA^low) cells): low cellular uptake
- AR degradation rate (AR; LNCaP cells, time-dependent evaluation): 97%
- DC50 (AR; read-out: DC50 for AR protein degradation, LNCaP cell line, 1 to 100 μM): 11.4 µM
- superior AR degradation efficiency relative to P-AR (AR; western blot, LNCaP, 20 μM, 48 h): 49%
